Reference: patent US20050209446A1, “Novel 15-membered cyclic azalide, novel 16-membered cyclic diazalide derivative, and process for producing these” (Meiji Seika Kaisha Ltd., priority 2002, published 2005)
Converted amounts (≈) assume the structure as drawn.

Legend:
[1] = assay type: in vitro ADME, mouse
Method: Antibacterial activities of the compound of Example 19 after treatment with mouse liver homogenate were examined as follows. Antibacterial activities of MOM were examined in the same manner for comparison. The liver was collected from a mouse, and added with a phosphate buffer to prepare 5% homogenate. A 50 μl of the test drug solution, dissolved in methanol so as to be 150 μg/ml, was added to 1.45 ml of the mouse liver homogenate, and the mixture was allowed to react at 37° C. Each portion of the reaction mixture was collected at the beginning of the reaction, and after 10, 20 and 40 minutes, and added with a given volume of an acetonitrile solution to prepare each bioassay sample for the measurement of a concentration of the test drug. […] After the incubation, a diameter of growth inhibitory circle of Micrococcus luteus ATCC9341 observed around the paper disc was measured with a digital slide calipers. […] On the basis of a calibration curve which was drawn from the concentrations and the diameters of growth inhibitory circles of the standard solutions, residual activities of the samples at the above sampling times were calculated, and compared with antibacterial activities at the beginning of the reaction.

[2] = tested on: Haemophilus influenzae 9334; assay: Antibacterial activity test in vitro (agar dilution MIC); assay type: cell-based; details: blood agar medium, 37° C., about 20 hours
Method: (§1) Antibacterial activities in vitro of the compounds of Examples 19 and 25 were measured as follows by referring to the standard method of Japanese Society of Chemotherapy (Chemotherapy, Vol. 29, p. 76-79, 1981). Antibacterial activities of miokamycin (MOM) was measured in the same manner for comparison.
(§2) For each of the solutions of the test drugs, which were dissolved in methanol so as to be 6,400 μg/ml, serial two-fold diluents with methanol were prepared. Each 200 μl of the test drug solutions prepared was placed in a laboratory dish, and the agar medium for sensitivity measurement, which was added with 5% equine sterile defibrinated blood, 15 μg/ml, β-Nicotinamide-adenine dinucleotide and 2.5 μg/ml hemin, was dispensed in 10 ml aliquots into the dish and then mixed with the solution for dilution to prepare the agar plate containing the test drug. A given amount of the liquid medium for the sensitivity measurement, which was prepared so as to contain a given amount of test bacterium was inoculated on the agar plate containing the test drug by a microplanter (Sakuma Seisakusyo, Co. Ltd.), and after the inoculation, the plate was incubated at 37° C. for about 20 hours. After the incubation, the existence of growth of the test bacterium was visually observed, and a minimum concentration at which no growth was observed was defined as a minimum inhibitory concentration of a test drug (MIC) against each of test bacteria.

[3] = tested on: Moraxella catarrhalis W-0506; assay: as above; assay type: cell-based; details: 37° C., about 20 hours; for Minimum inhibitory concentration (MIC): blood agar medium
Method: as §1, §2

[4] = tested on: Streptococcus pneumoniae DP1 TypeI; assay: as above; assay type: cell-based; details: blood agar medium, 37° C., about 20 hours
Method: as §1, §2

[5] = tested on: Micrococcus luteus ATCC9341; assay: as above; assay type: cell-based; details: blood agar medium, 37° C., about 20 hours
Method: as §1, §2

[6] = tested on: Staphylococcus aureus Smith; assay: as above; assay type: cell-based; details: blood agar medium, 37° C., about 20 hours
Method: as §1, §2

[7] = tested on: Streptococcus pneumoniae IP692; assay: as above; assay type: cell-based; details: blood agar medium, 37° C., about 20 hours
Method: as §1, §2

[8] = tested on: test bacteria; assay: Antibacterial activity test in vitro, overall statement; assay type: cell-based; details: summary of Table 1
Method: as §1
as §2, with “After the incubation, the existence of growth of the test bacterium was visually observed, and a minimum concentration at which no growth was observed was defined as a minimum inhibitory concentration of a test drug (MIC) against each of test bacteria.” left out

[9] = read-out: Minimum inhibitory concentration (MIC)

Row | MIC [2, 9] [µg/mL] | MIC ([3]; W0506, blood agar medium, read-out: Minimum inhibitory concentration (MIC)) [µg/mL] | MIC ([4]; DP1TYPEI, read-out: Minimum inhibitory concentration (MIC)) [µg/mL] | MIC [5, 9] [µg/mL] | MIC [6, 9] [µg/mL] | MIC [7, 9] [µg/mL] | Compound | residual antibacterial activities after treatment with mouse liver homogenate, compared with the start of the reaction [1] | Minimum inhibitory concentration (MIC) [2] [µg/mL] | Minimum inhibitory concentration (MIC) [3] [µg/mL] | Minimum inhibitory concentration (MIC) [4] [µg/mL] | Minimum inhibitory concentration (MIC) [5] [µg/mL] | Minimum inhibitory concentration (MIC) [6] [µg/mL] | Minimum inhibitory concentration (MIC) [7] [µg/mL] | antibacterial activities compared with MOM [8]
1 |  |  |  |  |  |  | CCC(=O)O[C@@H]1CC(=O)O[C@H](C)CCN(CCCCc2ccccc2)C[C@H](O)[C@H](C)C[C@H](CC=O)[C@H](O[C@@H]2O[C@H](C)[C@@H](O[C@H]3C[C@@](C)(OC(C)=O)[C@@H](OC(=O)CC)[C@H](C)O3)[C@H](N(C)C)[C@H]2O)[C@H]1OC [Example 19] | no decrease in antibacterial activities | 2 (≈ 2.04 µM) | 0.25 (≈ 0.255 µM) | 0.06 (≈ 0.0613 µM) | 0.03 (≈ 0.0306 µM) | 0.5 (≈ 0.511 µM) | 0.13 (≈ 0.133 µM) | higher antibacterial activities than MOM
2 |  |  |  |  |  |  | CCC(=O)O[C@@H]1CC(=O)O[C@H](C)CCN(CCCc2ccnc3ccccc23)C[C@H](O)[C@H](C)C[C@H](CC=O)[C@H](O[C@@H]2O[C@H](C)[C@@H](O[C@H]3C[C@@](C)(OC(C)=O)[C@@H](OC(=O)CC)[C@H](C)O3)[C@H](N(C)C)[C@H]2O)[C@H]1OC [Example 25, (−)-(3R,4S,5S,6R,8R,9R,14R)-5-[4-O-(3-O-acetyl-2,6-dideoxy-3-C-methyl-4-O-propionyl-α-L-ribo-hexopyranosyl)-3,6-dideoxy-3-dimethylamino-8-D-glucopyranosyl]-6-formylmethyl-9-hydroxy-4-methoxy-8-methyl-3-propionyloxy-11-(3-(quinolin-4-yl)propyl)-11-aza-pentadecan-14-olide] |  | 1 (≈ 0.984 µM) | 0.25 (≈ 0.246 µM) | 0.06 (≈ 0.059 µM) | 0.03 (≈ 0.0295 µM) | 0.5 (≈ 0.492 µM) | 0.06 (≈ 0.059 µM) | higher antibacterial activities than MOM
3 | 4 (≈ 4.45 µM) | 1 (≈ 1.11 µM) | 0.25 (≈ 0.278 µM) | 0.13 (≈ 0.145 µM) | 1 (≈ 1.11 µM) | 0.25 (≈ 0.278 µM) | CCC(=O)O[C@@H]1CC(=O)O[C@H](C)C/C=C/C=C/[C@H](OC(C)=O)[C@H](C)C[C@H](CC=O)[C@H](O[C@@H]2O[C@H](C)[C@@H](O[C@H]3C[C@@](C)(OC(C)=O)[C@@H](OC(=O)CC)[C@H](C)O3)[C@H](N(C)C)[C@H]2O)[C@H]1OC [MOM, miokamycin, reference compound] | apparent decreases in antibacterial activities |  |  |  |  |  |  | 
